Measurements from ChEMBL document CHEMBL1156230, “Identification of phenylsulfone-substituted quinoxaline (WYE-672) as a tissue selective liver X-receptor (LXR) agonist” (J Med Chem, 2010).

Legend:
[1] = molecular target: T1, Oxysterols receptor LXR-beta (Homo sapiens, UniProt P55055); experiment: Displacement of [3H]T0901317 from human LXRbeta ligand binding domain
[2] = molecular target: T1, Oxysterols receptor LXR-beta
[3] = molecular target: T2, Oxysterols receptor LXR-alpha (Homo sapiens, UniProt Q13133)
[4] = molecular target: T1, Oxysterols receptor LXR-beta; remark: listed apart in the source
[5] = molecular target: T2, Oxysterols receptor LXR-alpha; remark: listed apart in the source
HepG2 [6] = experiment: cells; conditions: Homo sapiens, HepG2, 3 h
THP-1 = experiment: cells; conditions: Homo sapiens
HepG2 [7] = experiment: Agonist activity at LXR in human HepG2 cells assessed as lipid accumulation relative to T0901317
[8] = molecular target: T3, Oxysterols receptor LXR-alpha (Homo sapiens, UniProt Q13133); experiment: Displacement of [3H]T0901317 from human LXRalpha ligand binding domain
T3 sequence (Q13133 whole entry): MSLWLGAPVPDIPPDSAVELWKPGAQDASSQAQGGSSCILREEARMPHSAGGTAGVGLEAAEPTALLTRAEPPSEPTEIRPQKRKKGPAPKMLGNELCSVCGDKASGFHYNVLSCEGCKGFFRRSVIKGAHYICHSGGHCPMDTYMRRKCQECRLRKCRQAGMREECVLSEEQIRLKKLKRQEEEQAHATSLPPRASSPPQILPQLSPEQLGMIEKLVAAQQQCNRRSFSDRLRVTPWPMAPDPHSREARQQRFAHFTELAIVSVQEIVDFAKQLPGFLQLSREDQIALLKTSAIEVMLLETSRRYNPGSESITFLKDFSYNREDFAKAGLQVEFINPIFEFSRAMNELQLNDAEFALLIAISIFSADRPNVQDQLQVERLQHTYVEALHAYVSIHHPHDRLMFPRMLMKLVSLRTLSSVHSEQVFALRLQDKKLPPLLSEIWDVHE

T1 sequence (P55055 whole entry, the tested form may be a part): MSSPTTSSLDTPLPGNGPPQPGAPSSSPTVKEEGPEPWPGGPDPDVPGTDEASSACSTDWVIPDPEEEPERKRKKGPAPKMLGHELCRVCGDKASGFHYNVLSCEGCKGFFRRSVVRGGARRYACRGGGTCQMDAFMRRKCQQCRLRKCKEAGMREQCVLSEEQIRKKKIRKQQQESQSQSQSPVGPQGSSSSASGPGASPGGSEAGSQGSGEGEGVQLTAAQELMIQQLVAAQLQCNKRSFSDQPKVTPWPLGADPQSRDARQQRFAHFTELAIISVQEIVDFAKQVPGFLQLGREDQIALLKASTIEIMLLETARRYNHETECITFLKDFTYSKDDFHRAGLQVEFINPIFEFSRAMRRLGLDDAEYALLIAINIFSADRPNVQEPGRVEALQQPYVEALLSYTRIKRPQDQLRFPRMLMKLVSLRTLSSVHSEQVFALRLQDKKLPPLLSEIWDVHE

Row | SMILES | EC50 (THP-1) [nM] | IC50 [8] [nM] | Efficacy (HepG2 [7]) [%] | other results
1 | CS(=O)(=O)c1cc(Cl)cc(Oc2cccc(-c3c(C(N)=O)cnc4c(C(F)(F)F)cccc34)c2)c1 | 1890 |  | 74 | IC50 [1]: 61 nM; EC50 [2]: 1700 nM; EC50 [3]: 10900 nM; EC50 [4]: 460 nM; EC50 [5]: 5100 nM; EC50 (HepG2 [6]): 3180 nM
2 | CNS(=O)(=O)c1cccc(-c2ccc(-c3nc4cccc(C(F)(F)F)c4nc3C)cc2)c1 | 1470 |  | 6 | 
3 | Cc1nc2c(C(F)(F)F)cccc2nc1-c1cccc(-c2cccc(S(C)(=O)=O)c2)c1 |  | > 1000 |  | 
4 | CCS(=O)(=O)c1cccc(-c2ccc(-c3nc4cccc(C(F)(F)F)c4nc3C)cc2)c1 |  | > 1000 |  | 
5 | Cc1nc2c(C(F)(F)F)cccc2nc1-c1ccc(-c2ccc(S(C)(=O)=O)cc2)cc1 |  | > 1000 |  | 
6 | CS(=O)(=O)c1cccc(-c2ccc(-c3cnc4c(C(F)(F)F)cccc4n3)cc2)c1 |  | > 1000 |  | 
7 | CCc1nc2c(C(F)(F)F)cccc2nc1-c1ccc(-c2cccc(S(C)(=O)=O)c2)cc1 | 900 |  | 32 | EC50 (HepG2 [6]): 350 nM
8 | Cc1nc2c(C(F)(F)F)cccc2nc1-c1cccc(-c2ccc(S(C)(=O)=O)cc2)c1 |  | > 1000 |  | 

Further lines, with some results ahead:

Row | EC50 (THP-1) [nM] | IC50 [8] [nM] | SMILES | Efficacy (HepG2 [7]) [%] | other results
9 |  | > 1000 | CNC(=O)c1cccc(-c2ccc(-c3nc4cccc(C(F)(F)F)c4nc3C)cc2)c1 |  | 
10 | 290 |  | Cc1nc2c(Cl)cccc2nc1-c1ccc(-c2cccc(S(C)(=O)=O)c2)cc1 | 18 | EC50 (HepG2 [6]): 380 nM
11 |  | > 1000 | Cc1nc2c(C(F)(F)F)cccc2nc1-c1ccc(-c2ccccc2S(C)(=O)=O)cc1 |  | 
